# According to PMC3481155, “AhR activation underlies the CYP1A autoinduction by A-998679 in rats” (Frontiers in Genetics, 2012):
# What was measured:
# [1] = test system: multidrug resistance-associated protein (Mrp3); assay: Mrp3 expression in rat liver; assay type: in vivo; details: treated rats; data not shown
# Description: All animal experiments were conducted in accordance with the Guiding Principles in the Use of Animals in Toxicology (http://www.toxicology.org/ai/air/air6.asp) and were approved by Abbott's Institutional Animal Care and Use Committee (IACUC). Male Sprague-Dawley rats [Crl:CD®(SD)IGS BR], weighing ~250 g at study initiation were obtained from Charles River Laboratories, Inc. (Wilmington, MA). Rats were housed singly in ventilated, stainless steel, wire-bottom hanging cages and fed non-certified Rodent Chow (Harlan Labs, Madison, WI), and water ad libitum and acclimated for at least 5 days after arrival. […] Serum clinical chemistry parameters were quantified using an Aeroset Clinical Chemistry Analyzer (Abbott Laboratories, Abbott Park, IL) and included alanine amino transferase (ALT), aspartate amino transferase (AST), gamma glutamyltransferase (GGT), and alkaline phosphatase (ALP) activities.
# Frozen liver or jejunum were immediately added to 4 ml of TRIzol reagent (Invitrogen Life Technologies) and homogenized using a Polytron 300D homogenizer (Brinkman Instruments, Westbury, NY). […] Nucleic acid concentration was determined by OD 260 nm (Smart-Spec, Bio-Rad Laboratories, Hercules, CA), and RNA integrity was evaluated using an Agilent 2100 bioanalyzer (Agilent Technologies, Foster City, CA). […]
# CYP1A2 = CYP1A2 mRNA induction in primary human hepatocytes; assay type: cell-based; details: 24 h, dose-dependent
# Description: Rat hepatocytes were isolated in a perfusion procedure as described previously (Elliget and Kolaja, [1983]; Waring et al., [2001]). The beagle dog hepatocytes were isolated in the same manner, except for adjustment of flow rate and buffer volume to scale to liver size. Cells were plated at a seeding density of 1.0 × 10^6 cells per well on 6-well, collagen-type I coated plates (BD Biosciences, Bedford, MA) in hepatocyte plating medium (Celsis, Baltimore, MD). Cells were allowed to attach for 24 h in a 37°C humidified incubator with a 5% CO2 atmosphere and were dosed for 24 h (rat) or 48 h (dog) with vehicle control [0.1% DMSO (v/v)] or 10 μM A-998679 in fresh treatment media (Celsis hepatocyte incubation media) every 24 h. After the last incubation, cells were lysed in 1 ml of Qiazol (Qiagen) and stored at −80°C until RNA isolation. Cryopreserved human hepatocytes (donor designation Hu4198; Invitrogen Life Technologies, Carlsbad, CA) were thawed and plated according to the manufacturer's protocol and allowed to incubate for 24 h. […]
# RNA samples were diluted with RNase-free molecular biology grade water to a concentration of 20 ng/μl total RNA. […] Results were analyzed by calculating the fold change of CYP1A1 and/or CYP1A2 mRNA levels normalized to 28S rRNA (ΔΔ Ct) in compound treated cells or tissues compared to vehicle levels. […]
smiles,measurement,setting,value
"N#Cc1cccc(-c2noc(-c3cccnc3)n2)c1 [A-998679, 3-(5-pyridin-3-yl-1,2,4-oxadiazol-3-yl) benzonitrile]",expression of Mrp3 in liver,[1],increased expression
same,lowest concentration inducing CYP1A2 mRNA,CYP1A2,3 µM
